Source: patent US7981912B2, “Indole acetic acids exhibiting CRTH2 receptor antagonism and uses thereof” (Wyeth LLC, priority 2004, dated 2011)

Columns and labels:
human CRTH2 [1] = target: T1, human CRTH2 (Homo sapiens, UniProt Q9Y5Y4); test: CRTH-2 binding assay (scintillation proximity assay, inhibition of 3H-PGD2 binding); design: expressed in transfected cells; host or cells: HEK 293EBNA-hCRTH2 (membrane preparation); settings: inhibition of 3H-PGD2 (3.6 nM) binding to HEK 293EBNA-hCRTH2 membranes; Ki calculated from IC50
T1 sequence (Q9Y5Y4 1-395): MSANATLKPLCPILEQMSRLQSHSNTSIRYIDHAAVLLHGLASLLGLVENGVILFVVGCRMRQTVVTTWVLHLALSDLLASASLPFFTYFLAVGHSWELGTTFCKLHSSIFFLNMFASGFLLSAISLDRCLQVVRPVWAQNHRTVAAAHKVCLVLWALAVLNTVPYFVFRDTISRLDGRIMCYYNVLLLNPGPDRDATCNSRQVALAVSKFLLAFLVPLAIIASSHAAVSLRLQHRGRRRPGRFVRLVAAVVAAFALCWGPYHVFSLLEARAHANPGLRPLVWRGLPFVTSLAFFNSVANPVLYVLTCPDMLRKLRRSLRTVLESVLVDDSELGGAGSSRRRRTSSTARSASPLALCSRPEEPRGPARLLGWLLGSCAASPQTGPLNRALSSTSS
Method in brief: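 Membranes from HEK 293EBNA cells stably expressing human CRTH2 (~20 μg protein/100 μL) with SPA beads and 3.6 nM 3H-PGD2 in 10 mM Hepes pH 7.4, 1 mM EDTA, 10 mM MnCl2, glycerol, 2 h at room temperature, seven compound concentrations in triplicate. Nonspecific binding defined with indomethacin; IC50 converted to Ki using Kd and radioligand concentration.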

human CRTH2 [2] = target: T1, human CRTH2; test: CRTH2 fluorescent imaging assay (intracellular calcium, antagonist mode); type: cell-based; design: expressed in transfected cells; host or cells: HT1080-hCRTH2; settings: HT1080-hCRTH2 cells; block of calcium increase caused by 500 nM PGD2
Procedure: The ability of the disclosed compounds to act as agonists for the hCRTH2 receptor was determined by their ability to cause increases in intracellular calcium via binding to the CRTH2 receptor.
Assays were performed on HEK 293EBNA-hCRTH2 cells that had been grown in DMEM media containing 10% FBS, […] puromycin and 1% penicillin/streptomycin/glutamine (PSG) at 37° C. in 5% CO2 or on HT1080-hCRTH2 cells (a HT1080 cell line stably expressing human CRTH2) that had been grown in alphaMEM media containing 10% FBS, 500 μg/ml hygromycin, 200 nM methotrexate and 1% PSG at 37° C. in 5% CO2.
For the assay, HEK 293EBNA-hCRTH2 cells or HT1080-hCRTH2 cells were grown to approximately 90% confluency and then dislodged from the plate with Trypsin-EDTA, resuspended in DMEM media, seeded in 384 well plates at 2×10^4 cells per well and incubated overnight at 37° C. The cells were loaded with a calcium sensing dye by removing the growth media and replacing it with 30 μL of dye loading Ringer's buffer (136 mM […], 5.4 mM D-Glucose, 20 mM Hepes pH 7.4, 2.1 mM MgCl2, 0.8 mM CaCl2, 0.2% BSA with 1× Calcium3Dye (Molecular Devices) and 2.5 mM Probenecid (Sigma)) per well. The cells were incubated at 37° C. for 1 hour to allow the dye to enter the cells. Compounds were serially diluted in DMSO and then diluted to 4× their final concentration with Ringer's buffer. The compounds were added to a 384 well plate in quadruplicate. In addition to test compounds, several wells contained Ringer's buffer with DMSO. These wells serve as control wells. 10 μL was transferred from compound/control plate to the plate containing cells loaded with dye by a fluorescent imaging plate reader (Molecular Devices). The fluorescence was measured every 4 seconds for 4 minutes. These measurements indicated the level of intracellular calcium. Increases in fluorescence relative to wells containing buffer only indicated an agonist effect of the compound. Measurement at various compound concentrations allowed one to determine the EC50 for these compounds. Following the 4 minute incubation with compound, 20 μL of Ringer's buffer with either 10 nM or 500 nM PGD2 (approximate EC75 for PGD2 in HEK 293EBNA-hCRTH2 cells and HT1080-hCRTH2 cells, respectively) was added to the wells. Inhibition by the compounds of the calcium response due to antagonism of PGD2 action on CRTH2 is reflected by a decrease in fluorescent signal relative to wells containing no compound. The fluorescence was measured every 2 seconds for 10 seconds before addition of PGD2 and every 2 seconds for 110 seconds following addition. Measurement at various compound concentrations allowed one to determine the IC50 for these compounds. EC50 and IC50 values were determined from the experimental results by nonlinear regression using the Prism 4.0 software.

| Structure (SMILES) | Ki (human CRTH2 [1]) | IC50 (human CRTH2 [2]) |
| --- | --- | --- |
| Cc1c(-c2nn(Cc3ccccc3)c(=O)c3ccccc23)c2cc(Cl)ccc2n1CC(=O)O [Example 16, [3-(3-Benzyl-4-oxo-3,4-dihydro-phthalazin-1-yl)-5-chloro-2-methyl-indol-1-yl]-acetic acid] | < 100 nM | 19 nM |
| Cc1c(-c2nn(Cc3ccc(F)cc3)c(=O)c3ccccc23)c2cc(Cl)ccc2n1CC(=O)O [Example 24, {5-Chloro-3-[3-(4-fluoro-benzyl)-4-oxo-3,4-dihydro-phthalazin-1-yl]-2-methyl-indol-1-yl}-acetic acid] | < 100 nM | 60 nM |
| Cc1onc(-c2ccccc2)c1CN1C(c2c(C)n(CC(=O)O)c3ccc(Cl)cc23)c2ccccc2S1(=O)=O (centres unmarked) [Example 61, {5-Chloro-2-methyl-3-[2-(5-methyl-3-phenyl-isoxazol-4-ylmethyl)-1,1-dioxo-2,3-dihydro-1H-1λ^6-benzo[d]isothiazol-3-yl]-indol-1-yl}-acetic acid] | < 100 nM | 170 nM |
| Cc1noc(C)c1CN1C(c2c(C)n(CC(=O)O)c3ccccc23)c2ccc(F)cc2S1(=O)=O (centres unmarked) [Example 62, {3-[2-(3,5-Dimethyl-isoxazol-4-ylmethyl)-6-fluoro-1,1-dioxo-2,3-dihydro-1H-1λ^6-benzo[d]isothiazol-3-yl]-2-methyl-indol-1-yl}-acetic acid] | < 100 nM | 22 nM |
| Cc1c(C2=NN(Cc3cccc(F)c3)S(=O)(=O)c3ccccc32)c2cc(F)ccc2n1CC(=O)O [Example 82, {3-[2-(3-Fluoro-benzyl)-1,1-dioxo-1,2-dihydro-1λ^6-benzo[e][1,2,3]thiadiazin-4-yl]-5-fluoro-2-methyl-indol-1-yl}-acetic acid] | < 100 nM |  |
| Cc1c(C2=NN(Cc3ccc(OC(F)(F)F)cc3)S(=O)(=O)c3ccccc32)c2cc(F)ccc2n1CC(=O)O [Example 84, {3-[2-(4-Trifluoromethoxy-benzyl)-1,1-dioxo-1,2-dihydro-1λ^6-benzo[e][1,2,3]thiadiazin-4-yl]-5-fluoro-2-methyl-indol-1-yl}-acetic acid] | < 1000 nM |  |
| Cc1c(C2=NN(Cc3cccc(C(F)(F)F)c3)S(=O)(=O)c3ccccc32)c2cc(F)ccc2n1CC(=O)O [Example 85, {3-[2-(3-Trifluoromethyl-benzyl)-1,1-dioxo-1,2-dihydro-1λ^6-benzo[e][1,2,3]thiadiazin-4-yl]-5-fluoro-2-methyl-indol-1-yl}-acetic acid] | < 1000 nM |  |
| Cc1c(C2=NN(C(C)c3ccccc3)S(=O)(=O)c3ccccc32)c2cc(F)ccc2n1CC(=O)O (centres unmarked) [Example 86, {3-[2-(1-phenyl-ethyl)-1,1-dioxo-1,2-dihydro-1λ^6-benzo[e][1,2,3]thiadiazin-4-yl]-5-fluoro-2-methyl-indol-1-yl}-acetic acid] | < 100 nM |  |
| Cc1c(C2=NN(CCc3ccccc3)S(=O)(=O)c3ccccc32)c2cc(F)ccc2n1CC(=O)O [Example 87, {3-[2-phenethyl-1,1-dioxo-1,2-dihydro-1λ^6-benzo[e][1,2,3]thiadiazin-4-yl]-5-fluoro-2-methyl-indol-1-yl}-acetic acid] | < 1000 nM |  |
| Cc1c(C2=NN(CCOc3ccccc3)S(=O)(=O)c3ccccc32)c2cc(F)ccc2n1CC(=O)O [Example 88, {3-[2-(2-Phenoxy-ethyl)-1,1-dioxo-1,2-dihydro-1λ^6-benzo[e][1,2,3]thiadiazin-4-yl]-5-fluoro-2-methyl-indol-1-yl}-acetic acid] | < 1000 nM |  |
| Cc1c(C2=NN(CCOc3ccc(Cl)cc3)S(=O)(=O)c3ccccc32)c2cc(F)ccc2n1CC(=O)O [Example 89, (3-{2-[2-(4-Chloro-phenoxy)-ethyl]-1,1-dioxo-1,2-dihydro-1λ^6-benzo[e][1,2,3]thiadiazin-4-yl}-5-fluoro-2-methyl-indol-1-yl)-acetic acid] | < 1000 nM |  |
| Cc1noc(C)c1CN1N=C(c2c(C)n(CC(=O)O)c3ccc(F)cc23)c2ccccc2S1(=O)=O [Example 90, {3-[2-(3,5-Dimethyl-isoxazol-4-ylmethyl)-1,1-dioxo-1,2-dihydro-1λ^6-benzo[e][1,2,3]thiadiazin-4-yl]-5-fluoro-2-methyl-indol-1-yl}-acetic acid] | < 100 nM |  |
| CCN1N=C(c2c(C)n(CC(=O)O)c3ccc(F)cc23)c2ccccc2S1(=O)=O [Example 91, [3-(2-Ethyl-1,1-dioxo-1,2-dihydro-1λ^6-benzo[e][1,2,3]thiadiazin-4-yl)-5-fluoro-2-methyl-indol-1-yl]-acetic acid] | < 100 nM |  |
| CCCN1N=C(c2c(C)n(CC(=O)O)c3ccc(F)cc23)c2ccccc2S1(=O)=O [Example 92, [3-(2-Propyl-1,1-dioxo-1,2-dihydro-1λ^6-benzo[e][1,2,3]thiadiazin-4-yl)-5-fluoro-2-methyl-indol-1-yl]-acetic acid] | < 100 nM |  |
| Cc1c(C2=NN(C(C)C)S(=O)(=O)c3ccccc32)c2cc(F)ccc2n1CC(=O)O [Example 93, [3-(2-Isopropyl-1,1-dioxo-1,2-dihydro-1λ^6-benzo[e][1,2,3]thiadiazin-4-yl)-5-fluoro-2-methyl-indol-1-yl]-acetic acid] | < 100 nM |  |
| Cc1c(C2=NN(C3CCCCC3)S(=O)(=O)c3ccccc32)c2cc(F)ccc2n1CC(=O)O [Example 94, [3-(2-Cyclohexyl-1,1-dioxo-1,2-dihydro-1λ^6-benzo[e][1,2,3]thiadiazin-4-yl)-5-fluoro-2-methyl-indol-1-yl]-acetic acid] | < 100 nM |  |
